In US20250381243A1, “HETEROCYCLES AND USES THEREOF” (Kumquat Biosciences Inc., priority 2022, published 2025):

System: A549 cells
Test: Cell proliferation assay (CellTiter-Glo), cells with K-Ras G12S mutation
Type: cell-based
Settings: Homo sapiens, ≤500 nM, read-out: Inhibition of A549 Cells (IC50)
How it was run: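 A549 (K-Ras G12S) cells in RPMI-1640 with 10% heat-inactivated FBS, plated in standard or ultra-low-attachment 384-well format, treated next day with a dilution series (e.g., 10-point, 3-fold). Viability read by CellTiter-Glo luminescence about 6 days later; IC50 from four-parameter fit.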

IC50: ≤ 500 nM
Structure (SMILES): CN(C[C@@H]1CN(C(=O)n2cnc(C#N)n2)[C@@H]1C1(C)CC1)c1nc(OC[C@@]23CCCN2C[C@H](F)C3)nc2c(F)c(-c3ccc(F)c4sc(N)c(C#N)c34)c(Cl)cc12 [Compound 237, 1-((2S,3R)-3-(((7-(2-amino-3-cyano-7-fluorobenzo[b]thiophen-4-yl)-6-chloro-8-fluoro-2-(((2R,7aS)-2-fluorotetrahydro-1H-pyrrolizin-7a(5H)-yl)methoxy)quinazolin-4-yl)(methyl)amino)methyl)-2-(1-methylcyclopropyl)azetidine-1-carbonyl)-1H-1,2,4-triazole-3-carbonitrile]
